Experiment: Stability study at 25° C./60% RH, 40° C./75% RH and 60° C. (XRPD, HPLC purity, impurity tracking)
Settings: for HPLC: based on free acid; for XRPD: * = crystalline salt
Excerpt: Stability of HBI-3808 Sodium Salt Pattern 2 was studied over 13 weeks.
Table 2F presents impurity tracking results from a 13-week stability study of HBI-3808 sodium salt of Pattern 2. […]

[1] = 40° C./75% RH (open vial), 4 Weeks
[2] = 40° C./75% RH (open vial), 8 Weeks
[3] = 40° C./75% RH (open vial), 13 Weeks

- HPLC (40° C./75% RH (open vial), 2 Weeks): 97.3 % area
- XRPD [1]: 1*
- HPLC [1]: 97.5 % area
- XRPD [2]: 1*
- HPLC [2]: 96.9 % area
- XRPD [3]: 1*
- HPLC [3]: 97.4 % area
- RRT 0.801 impurity (40° C./75% RH, 1 week): 0.10 % area
- RRT 0.970 impurity (40° C./75% RH, 1 week): 0.14 % area
- RRT 1.000 (HBI-3808) (40° C./75% RH, 1 week): 97.28 % area
- RRT 1.025 (Isomer of HBI-3808) (40° C./75% RH, 1 week): 2.48 % area
- Total Impurities (40° C./75% RH, 1 week): 2.72 % area
- RRT 0.970 impurity (40° C./75% RH, 2 weeks): 0.12 % area
- RRT 1.000 (HBI-3808) (40° C./75% RH, 2 weeks): 97.26 % area
- RRT 1.025 (Isomer of HBI-3808) (40° C./75% RH, 2 weeks): 2.40 % area
- RRT 1.935 impurity (40° C./75% RH, 2 weeks): 0.22 % area
- Total Impurities (40° C./75% RH, 2 weeks): 2.74 % area
- RRT 0.970 impurity (40° C./75% RH, 4 weeks): 0.11 % area
- RRT 1.025 (Isomer of HBI-3808) (40° C./75% RH, 4 weeks): 2.41 % area
- Total Impurities (40° C./75% RH, 4 weeks): 2.52 % area
- RRT 0.970 impurity (40° C./75% RH, 8 weeks): 0.21 % area
- RRT 1.000 (HBI-3808) (40° C./75% RH, 8 weeks): 96.88 % area
- RRT 1.025 (Isomer of HBI-3808) (40° C./75% RH, 8 weeks): 2.51 % area
- RRT 1.767 impurity (40° C./75% RH, 8 weeks): 0.40 % area
- Total Impurities (40° C./75% RH, 8 weeks): 3.12 % area
- RRT 1.000 (HBI-3808) (40° C./75% RH, 13 weeks): 97.41 % area
- RRT 1.025 (Isomer of HBI-3808) (40° C./75% RH, 13 weeks): 2.40 % area
- RRT 1.935 impurity (40° C./75% RH, 13 weeks): 0.20 % area
- Total Impurities (40° C./75% RH, 13 weeks): 2.59 % area
- RRT 1.000 (HBI-3808) (40° C./75% RH, T = 0): 97.82 % area
- RRT 1.025 (Isomer of HBI-3808) (40° C./75% RH, T = 0): 2.18 % area
- Total Impurities (40° C./75% RH, T = 0): 2.18 % area
- HPLC/ % area (60° C. (closed vial), 13 Weeks): 97.4 % area
- XRPD (60° C. (closed vial), 1 Week): 1*
- HPLC (60° C. (closed vial), 1 Week): 97.5 % area
- XRPD (60° C. (closed vial), 2 Weeks): 1*
- HPLC (60° C. (closed vial), 2 Weeks): 97.3 % area
- XRPD (60° C. (closed vial), 4 Weeks): 1*
- HPLC (60° C. (closed vial), 4 Weeks): 97.5 % area
- XRPD (60° C. (closed vial), 8 Weeks): 1*
- HPLC (60° C. (closed vial), 8 Weeks): 97.0 % area
- XRPD (60° C. (closed vial), 13 Weeks): 1*
- HPLC (60° C. (closed vial), 13 Weeks): 97.4 % area
- RRT 0.801 impurity (60° C., 1 week): 0.12 % area
- RRT 1.000 (HBI-3808) (60° C., 1 week): 97.46 % area
- RRT 1.025 (Isomer of HBI-3808) (60° C., 1 week): 2.43 % area
- Total Impurities (60° C., 1 week): 2.54 % area
- RRT 0.970 impurity (60° C., 2 weeks): 0.12 % area
- RRT 1.000 (HBI-3808) (60° C., 2 weeks): 97.27 % area
- RRT 1.025 (Isomer of HBI-3808) (60° C., 2 weeks): 2.41 % area
- RRT 1.935 impurity (60° C., 2 weeks): 0.20 % area
- Total Impurities (60° C., 2 weeks): 2.73 % area
- RRT 0.970 impurity (60° C., 4 weeks): 0.11 % area
- RRT 1.000 (HBI-3808) (60° C., 4 weeks): 97.49 % area
- RRT 1.025 (Isomer of HBI-3808) (60° C., 4 weeks): 2.40 % area
- Total Impurities (60° C., 4 weeks): 2.51 % area
- RRT 0.970 impurity (60° C., 8 weeks): 0.12 % area
- RRT 1.000 (HBI-3808) (60° C., 8 weeks): 97.04 % area
- RRT 1.025 (Isomer of HBI-3808) (60° C., 8 weeks): 2.49 % area
- RRT 1.767 impurity (60° C., 8 weeks): 0.35 % area
- Total Impurities (60° C., 8 weeks): 2.96 % area
- RRT 1.000 (HBI-3808) (60° C., 13 weeks): 97.41 % area
- RRT 1.025 (Isomer of HBI-3808) (60° C., 13 weeks): 2.41 % area
- RRT 1.935 impurity (60° C., 13 weeks): 0.18 % area
- Total Impurities (60° C., 13 weeks): 2.59 % area
- RRT 1.000 (HBI-3808) (60° C., T = 0): 97.82 % area
- RRT 1.025 (Isomer of HBI-3808) (60° C., T = 0): 2.18 % area
- Total Impurities (60° C., T = 0): 2.18 % area
- input purity by HPLC (input material of the stability study (baseline)): 97.5 % area
Compound: C[C@@H]1CC[C@]2(C(=O)O)CC[C@]3(C)C(=CC[C@@H]4[C@@]5(C)C[C@@H](O)[C@H](O)[C@@](C)(CO)[C@@H]5CC[C@]43C)[C@@H]2[C@]1(C)O.NCCO [ethanolamine salt of HBI-3808, ETHANOLAMINE SALT OF 23-HYDROXYTORMENTIC ACID]

Reference: patent US20250326785A1, “SODIUM SALT AND ETHANOLAMINE SALT OF 23-HYDROXYTORMENTIC ACID” (HUYABIO International, LLC, priority 2024, published 2025)
